Patent publication US9408852B2, “Method of lowering serum uric acid levels with (S)-tofisopam” (PHARMOS CORPORATION, priority 2011, dated 2016)
Values joined by “and” are separate entries in the source; they are usually repeats but may differ in a detail not shown here. Equal entries are not always repeated.

Legend:
Format in all cases: in vivo, human
serum creatinine = experiment: Serum creatinine in male and female patients with hyperuricemia and gout, 7 days (Example 8)
Description: (§1) The study lasted 7 days, and patients were treated with placebo or 50 mg of enantiomerically-pure (S)-tofisopam once a day (qd) on Day 1 and Day 7 of the study, and with placebo or 50 mg of enantiomerically-pure (S)-tofisopam three times a day (tid) for Days 2 to 6 of the study. […] In Table 7, days indicated with a minus sign (e.g. D-1) indicate the time point corresponding to that number of days before treatment was initiated. For example, D-14 is the time point fourteen days before treatment was initiated.

[1] = test system: urinary uric acid excretion; experiment: 24 h urinary uric acid excretion in patients with hyperuricemia and gout (Example 9); details: for Percent change in Uu (mg/24 h), amount of uric acid excreted into the urine over 24 hours / Percent change in Uu (mg/dL), concentration of uric acid in 24 hour urine: 50 mg qd Day 1 and 7, tid Days 2 to 6
Description: as §1, with “8,” for “7,”

[2] = test system: urinary creatinine excretion; experiment: 24 h urinary creatinine excretion in patients with hyperuricemia and gout (Example 9); details: 50 mg qd Day 1 and 7, tid Days 2 to 6
Description: as §1, with “8,” for “7,”

[3] = test system: fractional excretion of urate; experiment: Fractional excretion of urate in patients with hyperuricemia and gout (Example 9); details: 50 mg qd Day 1 and 7, tid Days 2 to 6
Description: as §1, with “8,” for “7,”

clearance creatinine = experiment: Creatinine clearance in patients with hyperuricemia and gout (Example 9); details: 50 mg qd Day 1 and 7, tid Days 2 to 6
Description: as §1, with “8,” for “7,”

[4] = 50 mg qd Day 1 and Day 7, tid Days 2 to 6, Day 1 to Day 2: Day 1 0 h + Day 2, hyperuricemia and gout
[5] = 50 mg qd Day 1 and Day 7, tid Days 2 to 6, Day 2 (Day 1 0 h = 0.0), hyperuricemia and gout
[6] = 50 mg qd Day 1 and Day 7, tid Days 2 to 6, Day 3 (Day 1 0 h = 0.0), hyperuricemia and gout
[7] = 50 mg qd Day 1 and Day 7, tid Days 2 to 6, Day 4 (Day 1 0 h = 0.0), hyperuricemia and gout
[8] = 50 mg qd Day 1 and Day 7, tid Days 2 to 6, Day 5 (Day 1 0 h = 0.0), hyperuricemia and gout
[9] = 50 mg qd Day 1 and Day 7, tid Days 2 to 6, Day 6 (Day 1 0 h = 0.0), hyperuricemia and gout
[10] = 50 mg qd Day 1 and Day 7, tid Days 2 to 6, Day 6 to Day 7: Day 6 + Day 7, hyperuricemia and gout
[11] = 50 mg qd Day 1 and Day 7, tid Days 2 to 6, Day 7 (Day 1 0 h = 0.0), hyperuricemia and gout
[12] = 50 mg qd Day 1 and Day 7, tid Days 2 to 6, Day 8 (after treatment stopped), hyperuricemia and gout
[13] = 50 mg qd Day 1 and Day 7, tid Days 2 to 6, Day 15 (after treatment stopped), hyperuricemia and gout
[14] = individual patient (P#), [D 1 to D 2] from [D −2 to D −1]
[15] = individual patient (P#), [D 6 to D 7] from [D 1 to D 2]
[16] = mean (M) of patients, [D 1 to D 2] from [D −2 to D −1]
[17] = mean (M) of patients, [D 6 to D 7] from [D 1 to D 2]

`CC[C@@H]1C(C)=NN=C(c2ccc(OC)c(OC)c2)c2cc(OC)c(OC)cc21` [(S)-tofisopam] was tested, and the “Percent change in serum creatinine, individual patients (P# 1-13)” value (shortened to “Percent change … (P# 1-13)”) (serum creatinine; [4]) was 4.4% and 0.9% and 0.5% (2×) and −1.0% and 2.3% and 0.8% and −1.3% and 6.7%, the “Percent change in serum creatinine, mean (M) of 13 patients” value (from here on “Percent change in serum creatinine, mean”) (serum creatinine; [4]) was 1.1% and the “Percent change … (P# 1-13)” value (serum creatinine; [5]) was 8.9% and 1.9% and 1.0% and −2.0% and 4.5% and 0.9% and 1.6% and −2.6% and 13.3%. The “Percent change in serum creatinine, mean” value (serum creatinine; [5]) was 2.1%, the “Percent change … (P# 1-13)” value (serum creatinine; [6]) was 7.6% and 3.7% and 13.6% and 2.0% and 16.2% and 10.4% and 4.8% and 17.9% and 24.0% and 14.9% and the “Percent change in serum creatinine, mean” value (serum creatinine; [6]) was 10.1%. The “Percent change … (P# 1-13)” value (serum creatinine; [7]) was 3.8% and −5.6% and 4.9% and −2.0% and 21.6% and −2.8% and 3.2% and 14.1% and 18.7%, the “Percent change in serum creatinine, mean” value (serum creatinine; [7]) was 6.1% and the “Percent change … (P# 1-13)” value (serum creatinine; [8]) was −5.1% and −3.7% and 8.7% and 9.8% and 23.4% and 0.9% and 14.3% and 7.7% and 24.0%. The “Percent change in serum creatinine, mean” value (serum creatinine; [8]) was 7.2%, the “Percent change … (P# 1-13)” value (serum creatinine; [9]) was 17.7% and 7.4% and 2.9% and 4.9% and 9.9% and 0.0% and 6.3% and 7.7% and 18.7% and the “Percent change in serum creatinine, mean” value (serum creatinine; [9]) was 8.0%. The “Percent change … (P# 1-13)” value (serum creatinine; [10]) was 15.2% and 2.3% and 0.5% and 1.0% and 10.4% and 5.7% and 7.1% and 5.1% and 12.0%, the “Percent change in serum creatinine, mean” value (serum creatinine; [10]) was 5.8% and the “Percent change … (P# 1-13)” value (serum creatinine; [11]) was 12.7% and −2.8% and −1.9% and −2.9% and 10.8% and 11.3% and 7.9% and 2.6% and 5.3%. For the same compound, the “Percent change in serum creatinine, mean” value (serum creatinine; [11]) was 3.7%, the “Percent change … (P# 1-13)” value (serum creatinine; [12]) was 10.1% and −7.4% and −8.7% and −6.9% and 0.9% and −2.8% and 12.7% and 12.8% and 24.0% and the “Percent change in serum creatinine, mean” value (serum creatinine; [12]) was 3.8%. For the same compound, the “Percent change … (P# 1-13)” value (serum creatinine; [13]) was 27.8% and 9.3% and 19.4% and 4.9% and 17.1% and 23.6% and 25.4% and −2.6% and 46.7%, the “Percent change in serum creatinine, mean” value (serum creatinine; [13]) was 13.6% and the “Effect on serum creatinine levels” value (serum creatinine; 50 mg qd Day 1 and Day 7, tid Days 2 to 6, male and female patients with hyperuricemia and gout) was “does not modify”. For the same compound, the “Serum creatinine levels once treatment was stopped after 7 days” value (serum creatinine; after 7 days of 50 mg treatment, hyperuricemia and gout) was “did not substantially change”, the “Uric acid excretion levels in the urine” value ([1]; after initiation of treatment, 50 mg qd Day 1 and Day 7, tid Days 2 to 6, hyperuricemia and gout) was “increased” and the “Percent change in Uu (mg/24 h), amount of uric acid excreted into the urine over 24 hours” value (shortened to “Percent change in Uu (mg/24 h), amount”) [1, 14] was 14.4% and 6.5% and −29.9% and 12.0% and −55.4% and 85.4% and 25.1% and 99.2% and 43.4% and −30.9% and −7.1% and 27.8%. The “Percent change in Uu (mg/dL), concentration of uric acid in 24 hour urine” value (from here on “Percent change in Uu (mg/dL)”) [1, 14] was 32.7% and −13.4% and 4.0% and 15.5% and −77.6% and 91.7% and 106.9% and 71.3% and 13.1% and −24.6% and −32.7% and 54.8%, the “Percent change in Uu (mg/24 h), amount” value [1, 15] was 4.6% and 21.3% and 43.8% and 18.3% and 1.0% and −7.0% and −11.6% and −18.9% and 7.9% and −13.3% and −22.8% and the “Percent change in Uu (mg/dL)” value [1, 15] was −15.6% and 1.7% and −17.5% and −15.9% and −20.8% and −40.4% and −48.3% and −49.3% and −9.5% and −14.3% and −39.5%. The “Percent change in Uu (mg/24 h), amount” value [1, 16] was 15.9%, the “Percent change in Uu (mg/dL)” value [1, 16] was 20.1% and the “Percent change in Uu (mg/24 h), amount” value [1, 17] was 2.1%. The “Percent change in Uu (mg/dL)” value [1, 17] was −24.5%, the “Percent change in Uc (mg/24 h), amount of creatinine excreted into the urine over 24 hours” value (“Percent change in Uc (mg/24 h), amount” for short) [2, 14] was 47.6% and 5.5% and −22.9% and −16.8% and 11.5% and −8.7% and −5.2% and −8.1% and −15.0% and −3.5% and −11.0% and 3.8% and the “Percent change in Uc (mg/dL), concentration of creatinine in 24 hour urine” value (from here on “Percent change in Uc (mg/dL)”) [2, 14] was 71.2% and −14.5% and 14.4% and −14.1% and −44.2% and −5.6% and 56.8% and −21.0% and −33.0% and 5.4% and −35.5% and 25.6%. For the same compound, the “Percent change in Uc (mg/24 h), amount” value [2, 15] was −14.5% and 19.2% and 15.4% and 10.8% and 7.9% and 5.9% and 5.6% and 21.6% and 5.8% and −4.8% and −10.8%, the “Percent change in Uc (mg/dL)” value [2, 15] was −31.0% and 0.2% and −33.7% and −21.3% and −15.2% and −32.1% and −38.3% and −24.0% and −11.2% and −6.0% and −30.1% and the “Percent change in Uc (mg/24 h), amount” value [2, 16] was −1.9%. The “Percent change in Uc (mg/dL)” value [2, 16] was 0.5%, the “Percent change in Uc (mg/24 h), amount” value [2, 17] was 5.6% and the “Percent change in Uc (mg/dL)” value [2, 17] was −22.1%. For the same compound, the “Percent change in FEu (fractional excretion uric acid)” value [3, 14] was −14.9% and 11.7% and −0.2% and 41.9% and −54.2% and 137.8% and 62.9% and 162.7% and 51.0% and −29.6% and 19.5% and 40.4%, the “Percent change in FEu (fractional excretion uric acid)” value [3, 15] was 139.3% and 78.5% and 160.4% and 60.9% and 100.7% and 62.6% and 17.3% and 33.2% and 61.6% and 57.5% and 125.9% and the “Percent change in FEu (fractional excretion uric acid)” value [3, 16] was 35.8%. For the same compound, the “Percent change in FEu (fractional excretion uric acid)” value [3, 17] was 81.6%, the “Percent change in CLc (clearance creatinine)” value (from here on “Percent change in CLc”) (clearance creatinine; [14]) was 35.1% and 2.5% and −24.4% and −14.2% and 16.2% and −22.4% and 0.7% and −4.1% and −2.7% and −1.3% and −11.8% and 11.2% and the “Percent change in CLc” value (clearance creatinine; [15]) was −12.7% and 15.2% and 21.1% and 14.0% and 8.9% and 0.0% (2×) and −3.9% and 14.3% and 0.7% and −23.7%. The “Percent change in CLc” value (clearance creatinine; [16]) was −1.3% and the “Percent change in CLc” value (clearance creatinine; [17]) was 3.1%.
